Test results taken from ChEMBL document CHEMBL4680119, “Battle tactics against MMP-9; discovery of novel non-hydroxamate MMP-9 inhibitors endowed with PI3K/AKT signaling attenuation and caspase 3/7 activation via Ugi bis-amide synthesis” (Eur J Med Chem, 2020).
Active and inactive are the calls of the source. No cut-off for these calls is given here.

Key:
HepG2 [1] = test: Induction of apoptosis in human HepG2 cells assessed as increase in caspase-3/7 activation by flow cytometric analysis; type: functional
HepG2 [2] = test: Inhibition of cell migration in human HepG2 cells incubated for 24 hrs by wound healing assay; type: functional
MCF7 [3] = test: Induction of apoptosis in human MCF7 cells assessed as increase in caspase-3/7 activation by flow cytometric analysis; type: functional
[4] = Induction of apoptosis in […] cells assessed as increase in caspase-3/7 activation by flow cytometric analysis; type: functional, Mus musculus
WI-38 = test: Cytotoxicity against human WI-38 cells assessed as reduction in cell viability by MTT assay; type: cell-based; details: for IC50: Homo sapiens, WI-38; for EC100: human, wi-38
[5] = Anticancer activity against […] cells assessed as reduction in cell viability by MTT assay; type: functional, cell-based; details: Mus musculus
HepG2 [6] = test: Anticancer activity against human HepG2 cells assessed as reduction in cell viability by MTT assay; type: functional, cell-based
[7] = target: Matrix metalloproteinase-9 (Homo sapiens, UniProt P14780); test: Inhibition of MMP-9 (unknown origin) by colorimetric assay
Chain of Matrix metalloproteinase-9 (P14780 whole entry): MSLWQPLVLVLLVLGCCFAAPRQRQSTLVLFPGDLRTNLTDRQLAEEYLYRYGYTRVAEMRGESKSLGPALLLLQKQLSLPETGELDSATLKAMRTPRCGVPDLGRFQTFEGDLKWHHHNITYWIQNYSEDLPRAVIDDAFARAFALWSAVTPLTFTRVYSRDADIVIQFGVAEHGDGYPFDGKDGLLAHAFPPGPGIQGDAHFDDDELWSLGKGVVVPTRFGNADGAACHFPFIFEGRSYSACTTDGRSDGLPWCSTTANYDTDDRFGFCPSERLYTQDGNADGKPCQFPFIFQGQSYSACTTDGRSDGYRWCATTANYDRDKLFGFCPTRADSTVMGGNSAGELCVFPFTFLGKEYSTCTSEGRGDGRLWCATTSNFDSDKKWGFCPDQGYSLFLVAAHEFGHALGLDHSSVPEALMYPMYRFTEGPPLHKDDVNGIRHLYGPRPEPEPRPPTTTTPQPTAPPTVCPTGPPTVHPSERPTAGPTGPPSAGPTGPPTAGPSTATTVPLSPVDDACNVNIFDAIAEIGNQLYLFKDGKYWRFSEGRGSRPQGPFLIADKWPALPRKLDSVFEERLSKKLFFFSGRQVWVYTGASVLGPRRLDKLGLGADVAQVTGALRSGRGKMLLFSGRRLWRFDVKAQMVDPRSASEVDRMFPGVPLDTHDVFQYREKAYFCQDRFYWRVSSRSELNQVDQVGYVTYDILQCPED

[8] = target: 72 kDa type IV collagenase (Homo sapiens, UniProt P08253); test: Inhibition of MMP-2 (unknown origin) by colorimetric assay
Chain of 72 kDa type IV collagenase (P08253 whole entry): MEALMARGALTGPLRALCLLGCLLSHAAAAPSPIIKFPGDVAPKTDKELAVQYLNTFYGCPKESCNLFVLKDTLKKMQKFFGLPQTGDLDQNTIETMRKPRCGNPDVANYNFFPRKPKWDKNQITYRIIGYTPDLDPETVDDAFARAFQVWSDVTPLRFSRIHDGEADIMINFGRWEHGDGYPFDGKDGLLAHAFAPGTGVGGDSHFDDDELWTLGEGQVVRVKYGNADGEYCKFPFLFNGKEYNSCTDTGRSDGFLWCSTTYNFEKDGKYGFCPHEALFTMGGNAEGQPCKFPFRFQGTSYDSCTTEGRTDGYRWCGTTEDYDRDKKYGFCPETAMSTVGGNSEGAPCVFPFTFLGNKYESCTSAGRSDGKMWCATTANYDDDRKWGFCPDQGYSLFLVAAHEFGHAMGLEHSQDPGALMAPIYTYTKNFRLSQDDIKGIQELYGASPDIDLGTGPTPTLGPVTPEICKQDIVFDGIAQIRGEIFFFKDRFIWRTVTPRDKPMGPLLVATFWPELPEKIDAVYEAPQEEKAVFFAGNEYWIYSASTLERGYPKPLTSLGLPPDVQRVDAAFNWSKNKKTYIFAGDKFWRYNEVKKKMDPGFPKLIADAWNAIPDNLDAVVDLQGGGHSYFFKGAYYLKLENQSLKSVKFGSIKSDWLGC

Interstitial collagenase = target: T1, Interstitial collagenase (Homo sapiens, UniProt P03956); test: Inhibition of MMP-1 (unknown origin) by colorimetric assay
T1 sequence (P03956 whole entry): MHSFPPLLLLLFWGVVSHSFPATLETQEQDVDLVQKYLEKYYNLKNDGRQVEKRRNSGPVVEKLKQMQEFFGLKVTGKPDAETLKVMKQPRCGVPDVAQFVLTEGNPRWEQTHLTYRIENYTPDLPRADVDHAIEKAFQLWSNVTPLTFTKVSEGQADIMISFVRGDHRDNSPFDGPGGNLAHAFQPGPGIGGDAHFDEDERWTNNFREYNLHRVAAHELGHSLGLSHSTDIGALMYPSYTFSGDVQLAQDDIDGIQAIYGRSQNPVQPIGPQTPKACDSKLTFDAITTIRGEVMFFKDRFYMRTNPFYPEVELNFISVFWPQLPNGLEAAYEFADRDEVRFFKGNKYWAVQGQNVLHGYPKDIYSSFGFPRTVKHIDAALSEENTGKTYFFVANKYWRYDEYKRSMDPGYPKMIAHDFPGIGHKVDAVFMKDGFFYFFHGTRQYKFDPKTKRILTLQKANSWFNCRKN

Collagenase 3 = Collagenase 3 (Homo sapiens, UniProt P45452); test: Inhibition of MMP-13 (unknown origin) by colorimetric assay
MCF7 [9] = test: Induction of cell morphological changes in human MCF7 cells assessed as loss in cell shape by microscopic analysis; type: functional, cell-based
NFS-60 [10] = test: Induction of cell morphological changes in […] cells assessed as loss in cell shape by microscopic analysis; type: functional, cell-based; details: Mus musculus
HepG2 [11] = test: Induction of cell morphological changes in human HepG2 cells assessed as loss in cell shape by microscopic analysis; type: functional, cell-based
MCF7 [12] = test: Induction of apoptosis in human MCF7 cells assessed as cell shrinkage by microscopic analysis; type: functional, cell-based
NFS-60 [13] = test: Induction of apoptosis in […] cells assessed as cell shrinkage by microscopic analysis; type: functional, cell-based
HepG2 [14] = test: Induction of apoptosis in human HepG2 cells assessed as cell shrinkage by microscopic analysis; type: functional, cell-based
MCF7 [15] = test: Induction of apoptosis in human MCF-7 cells assessed as early apoptosis by annexinV/propidium iodide staining based by flow cytometry (reference value: 0.47+/- 0.01%); type: functional
MCF7 [16] = test: Induction of apoptosis in human MCF-7 cells assessed as late apoptosis by annexinV/propidium iodide staining based by flow cytometry (reference value: 0.01+/- 0.001%); type: functional
MCF7 [17] = test: Induction of apoptosis in human MCF-7 cells assessed as total apoptosis by annexin V/propidium iodide staining based by flow cytometry (reference value: 0.48+/- 0.01%); type: functional
[18] = Induction of apoptosis in […] cells assessed as early apoptosis by annexinV/propidium iodide staining based by flow cytometry (reference value: 0.02+/- 0.01%); type: functional, Mus musculus
[19] = Induction of apoptosis in […] cells assessed as late apoptosis by annexinV/propidium iodide staining based by flow cytometry (reference value: 0.015+/- 0.01%); type: functional, Mus musculus
[20] = Induction of apoptosis in […] cells assessed as total apoptosis by annexinV/propidium iodide staining based by flow cytometry (reference value: 0.495+/- 0.01%); type: functional, Mus musculus
HepG2 [21] = test: Induction of apoptosis in human HepG2 cells assessed as early apoptosis by annexinV/propidium iodide staining based by flow cytometry (reference value: 0.78+/- 0.09%); type: functional
HepG2 [22] = test: Induction of apoptosis in human HepG2 cells assessed as late apoptosis by annexinV/propidium iodide staining based by flow cytometry (reference value: 0.1+/- 0.001%); type: functional
HepG2 [23] = test: Induction of apoptosis in human HepG2 cells assessed as total apoptosis by annexin/propidium iodide staining based by flow cytometry (reference value: 0.169+/- 0.02%); type: functional
MCF7 [24] = test: cells; details: Homo sapiens
Description: Anticancer activity against human MCF7 cells assessed as reduction in cell viability by MTT assay

in vitro = details: human, WI38 cells and HepG2 cells
Description: Selectivity index, ratio of IC50 for human WI38 cells to IC50 for human HepG2 cells

SMILES | Activity (HepG2 [1]) [%] | inhibition (INH) (HepG2 [2]) [%] | Activity (MCF7 [3]) [%] | Activity [4] [%] | IC50 (WI-38) [nM] | EC100 (WI-38) [nM] | IC50 [5] [nM] | IC50 (HepG2 [6]) [nM] | IC50 [7] [nM] | IC50 [8] [nM] | IC50 (Interstitial collagenase) [nM] | IC50 (Collagenase 3) [nM] | Activity (MCF7 [9]) | Activity (NFS-60 [10]) | Activity (HepG2 [11]) | Activity (MCF7 [15]) [%] | Activity (MCF7 [16]) [%] | Activity (MCF7 [17]) [%] | Activity [18] [%] | Activity [19] [%] | also measured
O=C(Nc1ccc([N+](=O)[O-])cc1)C(c1ccc([N+](=O)[O-])cc1)N(C(=O)c1ccc(C(F)(F)F)cc1)c1ccccc1 (centres undefined) | 70.745 | 93.77 | 65.725 | 62.703 | 374 | 107.4 | 3.61 | 2.2 | 7.46 | 139 | 41 | 113 | Active | Active | Active | 18.28 | 50.72 | 69.005 | 39.15 | 28.33 | Activity (MCF7 [12]): Active; Activity (NFS-60 [13]): Active; Activity (HepG2 [14]): Active; Activity [20]: 67.485%; Activity (HepG2 [21]): 26.46%; Activity (HepG2 [22]): 43.95%; Activity (HepG2 [23]): 70.415%; IC50 (MCF7 [24]): 3.6 nM; selectivity ratio (in vitro): 170
O=C(Nc1ccc([N+](=O)[O-])cc1)C(c1ccccc1)N(Cc1ccccc1)C(=O)Cc1ccccc1 (centres undefined) | 59.13 | 71.25 | 51.928 | 53.86 | 314 | 93.5 | 5.8 | 5.7 | 5.56 | 221 | 47 | 295 | Active | Active | Active | 27.39 | 21.79 | 49.19 | 16.26 | 39.08 | Activity [20]: 55.35%; Activity (HepG2 [21]): 19.08%; Activity (HepG2 [22]): 36.1%; Activity (HepG2 [23]): 55.19%; IC50 (MCF7 [24]): 6.6 nM; selectivity ratio (in vitro): 55.1
O=C(Nc1ccc([N+](=O)[O-])cc1)C(c1ccccc1)N(C(=O)c1ccccc1I)c1ccccc1 (centres undefined) | 70.708 | 59.35 | 64.93 | 63.86 | 35.1 | 10.3 | 5.5 | 3.1 | 4.49 | 266 | 104 | 280 | Active | Active | Active | 31.78 | 29.82 | 61.605 | 9.99 | 58.08 | Activity (MCF7 [12]): Active; Activity (NFS-60 [13]): Active; Activity (HepG2 [14]): Active; Activity [20]: 68.07%; Activity (HepG2 [21]): 14.02%; Activity (HepG2 [22]): 55.35%; Activity (HepG2 [23]): 69.375%; IC50 (MCF7 [24]): 6.9 nM; selectivity ratio (in vitro): 11.3
